According to the supplement of paper PMC5908809:

Tests used:
[1] = test system: IMC-1 (IL-2 20 ng/mL); experiment: drug sensitivity score (DSS) (DSS units); higher = more sensitive; extreme values may be limits of the assay; conditions: 72 h
[2] = test system: normal primary NK cells, pool 3 (3 donors) (IL-2 2.5 ng/mL); experiment: as above; conditions: 72 h
[3] = test system: YT (IL-2 2.5 ng/mL); experiment: as above; conditions: 72 h
[4] = test system: NK-92 (IL-2 2.5 ng/mL); experiment: as above; conditions: 72 h
[5] = test system: SNK-6 (IL-2 2.5 ng/mL); experiment: as above; conditions: 72 h
[6] = test system: NK-YS (IL-2 2.5 ng/mL); experiment: as above; conditions: 72 h
[7] = test system: NKL (IL-2 2.5 ng/mL); experiment: as above; conditions: 72 h
[8] = test system: DERL-7 (IL-2 2.5 ng/mL); experiment: as above; conditions: 72 h
[9] = test system: normal primary NK cells, pool 1 (3 donors) (IL-2 2.5 ng/mL); experiment: as above; conditions: 72 h
[10] = test system: KHYG-1 (IL-2 2.5 ng/mL); experiment: as above; conditions: 72 h
[11] = test system: normal primary NK cells, pool 1 (3 donors), resting (IL-2 0 ng/mL); experiment: as above; conditions: 72 h
[12] = test system: KAI3 (IL-2 2.5 ng/mL); experiment: as above; conditions: 72 h
[13] = test system: normal primary NK cells, pool 2 (3 donors) (IL-2 2.5 ng/mL); experiment: as above; conditions: 72 h
[14] = test system: normal NK cells expanded with K562-aAPC; experiment: percent inhibition of viability; higher = more inhibition; conditions: 72 h, IL-2 2.5 ng/mL
Procedure: (§1)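 Drug sensitivity and resistance testing on K562-aAPC-expanded normal NK cells: 5 concentrations (10-fold steps over a 10,000-fold range), 72 h at 37 °C, viability by CellTiter-Glo normalised to DMSO and benzethonium chloride controls; DSS from the fitted curve.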

[15] = test system: IMC-1 (IL-2 20 ng/mL); experiment: as above; conditions: 72 h
[16] = test system: normal primary NK cells, pool 3 (3 donors) (IL-2 2.5 ng/mL); experiment: as above; conditions: 72 h
[17] = test system: YT (IL-2 2.5 ng/mL); experiment: as above; conditions: 72 h
[18] = test system: NK-92 (IL-2 2.5 ng/mL); experiment: as above; conditions: 72 h
[19] = test system: SNK-6 (IL-2 2.5 ng/mL); experiment: as above; conditions: 72 h
[20] = test system: NK-YS (IL-2 2.5 ng/mL); experiment: as above; conditions: 72 h
[21] = test system: NKL (IL-2 2.5 ng/mL); experiment: as above; conditions: 72 h
[22] = test system: DERL-7 (IL-2 2.5 ng/mL); experiment: as above; conditions: 72 h
[23] = test system: normal primary NK cells, pool 1 (3 donors) (IL-2 2.5 ng/mL); experiment: as above; conditions: 72 h
[24] = test system: KHYG-1 (IL-2 2.5 ng/mL); experiment: as above; conditions: 72 h
[25] = test system: normal primary NK cells, pool 1 (3 donors), resting (IL-2 0 ng/mL); experiment: as above; conditions: 72 h
[26] = test system: KAI3 (IL-2 2.5 ng/mL); experiment: as above; conditions: 72 h
[27] = test system: normal primary NK cells, pool 2 (3 donors) (IL-2 2.5 ng/mL); experiment: as above; conditions: 72 h
[28] = test system: normal NK cells expanded with K562-aAPC; experiment: drug sensitivity score (DSS) (DSS units); higher = more sensitive; extreme values may be limits of the assay; conditions: 72 h; IL-2 2.5 ng/mL
Procedure: as §1

CC1(C)CCC(c2ccc(Cl)cc2)=C(CN2CCN(c3ccc(C(=O)NS(=O)(=O)c4ccc(N[C@H](CCN5CCOCC5)CSc5ccccc5)c(S(=O)(=O)C(F)(F)F)c4)cc3)CC2)C1 [Navitoclax] (max concentration tested 10000 nM)
drug sensitivity score [1]: 9.91
drug sensitivity score [2]: 19.2
drug sensitivity score [3]: 26.4
drug sensitivity score [4]: 18.6
drug sensitivity score [5]: 39.8
drug sensitivity score [6]: 24.8
drug sensitivity score [7]: 29.4
drug sensitivity score [8]: 23
drug sensitivity score [9]: 25.1
drug sensitivity score [10]: 26.3
drug sensitivity score [11]: 36.1
drug sensitivity score [12]: 42.1
drug sensitivity score [13]: 24.6
percent inhibition of viability ([14]; 1 nM): -0.31%
percent inhibition of viability ([14]; 10 nM): -4.48%
percent inhibition of viability ([14]; 100 nM): 10.3%
percent inhibition of viability ([14]; 1000 nM): 55%
percent inhibition of viability ([14]; 10000 nM): 77%
percent inhibition of viability ([15]; 1 nM): -6.88%
percent inhibition of viability ([15]; 10 nM): -0.75%
percent inhibition of viability ([15]; 100 nM): 19.6%
percent inhibition of viability ([15]; 1000 nM): 38.7%
percent inhibition of viability ([15]; 10000 nM): 79.4%
percent inhibition of viability ([16]; 1 nM): -14.4%
percent inhibition of viability ([16]; 10 nM): -12.2%
percent inhibition of viability ([16]; 100 nM): 24.6%
percent inhibition of viability ([16]; 1000 nM): 87.2%
percent inhibition of viability ([16]; 10000 nM): 95.9%
percent inhibition of viability ([17]; 1 nM): 2.71%
percent inhibition of viability ([17]; 10 nM): 25.2%
percent inhibition of viability ([17]; 100 nM): 69.4%
percent inhibition of viability ([17]; 1000 nM): 77.4%
percent inhibition of viability ([17]; 10000 nM): 87.6%
percent inhibition of viability ([18]; 1 nM): -0.38%
percent inhibition of viability ([18]; 10 nM): -1.7%
percent inhibition of viability ([18]; 100 nM): 27%
percent inhibition of viability ([18]; 1000 nM): 83.7%
percent inhibition of viability ([18]; 10000 nM): 95.2%
percent inhibition of viability ([19]; 1 nM): 16.9%
percent inhibition of viability ([19]; 10 nM): 69.7%
percent inhibition of viability ([19]; 100 nM): 99%
percent inhibition of viability ([19]; 1000 nM): 99.5%
percent inhibition of viability ([19]; 10000 nM): 98.8%
percent inhibition of viability ([20]; 1 nM): 0.62%
percent inhibition of viability ([20]; 10 nM): 12%
percent inhibition of viability ([20]; 100 nM): 56.3%
percent inhibition of viability ([20]; 1000 nM): 99.3%
percent inhibition of viability ([20]; 10000 nM): 96.6%
percent inhibition of viability ([21]; 1 nM): -5.66%
percent inhibition of viability ([21]; 10 nM): 12.4%
percent inhibition of viability ([21]; 100 nM): 83.2%
percent inhibition of viability ([21]; 1000 nM): 101%
percent inhibition of viability ([21]; 10000 nM): 97.8%
percent inhibition of viability ([22]; 1 nM): 2%
percent inhibition of viability ([22]; 10 nM): 1.88%
percent inhibition of viability ([22]; 100 nM): 47.8%
percent inhibition of viability ([22]; 1000 nM): 93%
percent inhibition of viability ([22]; 10000 nM): 100%
percent inhibition of viability ([23]; 1 nM): -16.8%
percent inhibition of viability ([23]; 10 nM): -9.66%
percent inhibition of viability ([23]; 100 nM): 60%
percent inhibition of viability ([23]; 1000 nM): 94%
percent inhibition of viability ([23]; 10000 nM): 99.9%
percent inhibition of viability ([24]; 1 nM): -3.19%
percent inhibition of viability ([24]; 10 nM): -1.54%
percent inhibition of viability ([24]; 100 nM): 72.7%
percent inhibition of viability ([24]; 1000 nM): 102%
percent inhibition of viability ([24]; 10000 nM): 96.3%
percent inhibition of viability ([25]; 1 nM): 2.54%
percent inhibition of viability ([25]; 10 nM): 48%
percent inhibition of viability ([25]; 100 nM): 98.3%
percent inhibition of viability ([25]; 1000 nM): 100%
percent inhibition of viability ([25]; 10000 nM): 99.9%
percent inhibition of viability ([26]; 1 nM): 19.6%
percent inhibition of viability ([26]; 10 nM): 80.7%
percent inhibition of viability ([26]; 100 nM): 102%
percent inhibition of viability ([26]; 1000 nM): 104%
percent inhibition of viability ([26]; 10000 nM): 97.4%
percent inhibition of viability ([27]; 1 nM): -16.4%
percent inhibition of viability ([27]; 10 nM): 3.46%
percent inhibition of viability ([27]; 100 nM): 56.9%
percent inhibition of viability ([27]; 1000 nM): 95.9%
percent inhibition of viability ([27]; 10000 nM): 99%
drug sensitivity score [28]: 11.7

CNC(=O)c1ccccc1Sc1ccc2c(/C=C/c3ccccn3)n[nH]c2c1 [Axitinib] (max concentration tested 10000 nM)
drug sensitivity score [1]: 5.63
drug sensitivity score [2]: 0.95
drug sensitivity score [3]: 9.19
drug sensitivity score [4]: 8.68
drug sensitivity score [5]: 10.8
drug sensitivity score [6]: 9.35
drug sensitivity score [7]: 8.51
drug sensitivity score [8]: 15.7
drug sensitivity score [9]: 3.89
drug sensitivity score [10]: 11
drug sensitivity score [11]: 2.23
drug sensitivity score [12]: 10.5
drug sensitivity score [13]: 1.77
percent inhibition of viability ([14]; 1 nM): -1.18%
percent inhibition of viability ([14]; 10 nM): -2.54%
percent inhibition of viability ([14]; 100 nM): -3.5%
percent inhibition of viability ([14]; 1000 nM): 11.1%
percent inhibition of viability ([14]; 10000 nM): 58.7%
percent inhibition of viability ([15]; 1 nM): -1.86%
percent inhibition of viability ([15]; 10 nM): -0.66%
percent inhibition of viability ([15]; 100 nM): 0.71%
percent inhibition of viability ([15]; 1000 nM): 4.7%
percent inhibition of viability ([15]; 10000 nM): 89.3%
percent inhibition of viability ([16]; 1 nM): -8.62%
percent inhibition of viability ([16]; 10 nM): 6.8%
percent inhibition of viability ([16]; 100 nM): 13%
percent inhibition of viability ([16]; 1000 nM): 1.12%
percent inhibition of viability ([16]; 10000 nM): 23%
percent inhibition of viability ([17]; 1 nM): -2.15%
percent inhibition of viability ([17]; 10 nM): -4.48%
percent inhibition of viability ([17]; 100 nM): 1.03%
percent inhibition of viability ([17]; 1000 nM): 33%
percent inhibition of viability ([17]; 10000 nM): 85%
percent inhibition of viability ([18]; 1 nM): -13.6%
percent inhibition of viability ([18]; 10 nM): -7.2%
percent inhibition of viability ([18]; 100 nM): -14%
percent inhibition of viability ([18]; 1000 nM): 24.3%
percent inhibition of viability ([18]; 10000 nM): 90.7%
percent inhibition of viability ([19]; 1 nM): -4.55%
percent inhibition of viability ([19]; 10 nM): -16.4%
percent inhibition of viability ([19]; 100 nM): -11.7%
percent inhibition of viability ([19]; 1000 nM): 55.8%
percent inhibition of viability ([19]; 10000 nM): 78.6%
percent inhibition of viability ([20]; 1 nM): -3.68%
percent inhibition of viability ([20]; 10 nM): -2.56%
percent inhibition of viability ([20]; 100 nM): 3.21%
percent inhibition of viability ([20]; 1000 nM): 38.7%
percent inhibition of viability ([20]; 10000 nM): 85%
percent inhibition of viability ([21]; 1 nM): -1.55%
percent inhibition of viability ([21]; 10 nM): -1.93%
percent inhibition of viability ([21]; 100 nM): 18.9%
percent inhibition of viability ([21]; 1000 nM): 32.5%
percent inhibition of viability ([21]; 10000 nM): 69.6%
percent inhibition of viability ([22]; 1 nM): -3.47%
percent inhibition of viability ([22]; 10 nM): 7.74%
percent inhibition of viability ([22]; 100 nM): 27%
percent inhibition of viability ([22]; 1000 nM): 64.5%
percent inhibition of viability ([22]; 10000 nM): 94%
percent inhibition of viability ([23]; 1 nM): -5.69%
percent inhibition of viability ([23]; 10 nM): 14.3%
percent inhibition of viability ([23]; 100 nM): 5.75%
percent inhibition of viability ([23]; 1000 nM): 13.8%
percent inhibition of viability ([23]; 10000 nM): 44.6%
percent inhibition of viability ([24]; 1 nM): -2.88%
percent inhibition of viability ([24]; 10 nM): -3.36%
percent inhibition of viability ([24]; 100 nM): 4.43%
percent inhibition of viability ([24]; 1000 nM): 49.4%
percent inhibition of viability ([24]; 10000 nM): 93.1%
percent inhibition of viability ([25]; 1 nM): -14.3%
percent inhibition of viability ([25]; 10 nM): 9%
percent inhibition of viability ([25]; 100 nM): 2.7%
percent inhibition of viability ([25]; 1000 nM): 0.6%
percent inhibition of viability ([25]; 10000 nM): 42.6%
percent inhibition of viability ([26]; 1 nM): 2.52%
percent inhibition of viability ([26]; 10 nM): -0.91%
percent inhibition of viability ([26]; 100 nM): 10.2%
percent inhibition of viability ([26]; 1000 nM): 47.2%
percent inhibition of viability ([26]; 10000 nM): 82%
percent inhibition of viability ([27]; 1 nM): -13.7%
percent inhibition of viability ([27]; 10 nM): 4.14%
percent inhibition of viability ([27]; 100 nM): 6.01%
percent inhibition of viability ([27]; 1000 nM): -6.27%
percent inhibition of viability ([27]; 10000 nM): 42.8%
drug sensitivity score [28]: 5.02
